Measurements reported in article PMC4300089, “Structure-Guided Design of Selective Epac1 and Epac2 Agonists” (PLoS Biology, 2015).

How the values were obtained:
PKA = assay: Cellular PKA activity: P-VASP band shift in U2OS Epac1 and Epac2 cell lines; format: cell-based; settings: for rel. P-VASP: PKA, average of Epac1 and Epac2 cell lines, relative to induction with forskolin and IBMX, Fig. 6C; for activation of PKA in cells: U2OS cell lines
Experimental: (§1) Rap•GTP levels were determined by precipitating GTP-bound Rap specifically from cell lysates and subsequent western Blotting with an α-Rap antibody (Santa Cruz Biotechnology). To generate stable cell lines, U2OS cells were transfected with pBabe-Flag-Epac1 (Epac1, homo sapiens, amino acids 1–881) or pBabe-Flag-Epac2 (Epac2, mus musculus, amino acids 1–993), selected for Epac expression and maintained under selection with 2 mg/l puromycin. The cells were cultured according to standard protocols. The activity of PKA was determined by western blotting with a monoclonal α-VASP antibody (BD Transduction Laboratories). Blots were developed by enhanced chemiluminescence (ECL) and the use of X-ray films; for quantification films were scanned. The intensities of the Rap•GTP bands and the upper band of VASP (P-VASP) were determined for each condition in ImageJ and normalized to the stimulation with forskolin and IBMX for each blot.

Epac2 = molecular target: T1, Epac2 (Mus musculus, UniProt Q9EQZ6); assay: Cellular Epac activity: Rap•GTP levels in U2OS cells stably expressing Epac2; format: cell-based, homo sapiens; settings: for rel. RapGTP: relative to induction with forskolin and IBMX, Fig. 6C
T1 construct: pBabe-Flag-Epac2 (Epac2, mus musculus, amino acids 1–993); expressed in transfected cells; host or cells: U2OS
T1 sequence (Q9EQZ6 1-993 isoform Q9EQZ6-3): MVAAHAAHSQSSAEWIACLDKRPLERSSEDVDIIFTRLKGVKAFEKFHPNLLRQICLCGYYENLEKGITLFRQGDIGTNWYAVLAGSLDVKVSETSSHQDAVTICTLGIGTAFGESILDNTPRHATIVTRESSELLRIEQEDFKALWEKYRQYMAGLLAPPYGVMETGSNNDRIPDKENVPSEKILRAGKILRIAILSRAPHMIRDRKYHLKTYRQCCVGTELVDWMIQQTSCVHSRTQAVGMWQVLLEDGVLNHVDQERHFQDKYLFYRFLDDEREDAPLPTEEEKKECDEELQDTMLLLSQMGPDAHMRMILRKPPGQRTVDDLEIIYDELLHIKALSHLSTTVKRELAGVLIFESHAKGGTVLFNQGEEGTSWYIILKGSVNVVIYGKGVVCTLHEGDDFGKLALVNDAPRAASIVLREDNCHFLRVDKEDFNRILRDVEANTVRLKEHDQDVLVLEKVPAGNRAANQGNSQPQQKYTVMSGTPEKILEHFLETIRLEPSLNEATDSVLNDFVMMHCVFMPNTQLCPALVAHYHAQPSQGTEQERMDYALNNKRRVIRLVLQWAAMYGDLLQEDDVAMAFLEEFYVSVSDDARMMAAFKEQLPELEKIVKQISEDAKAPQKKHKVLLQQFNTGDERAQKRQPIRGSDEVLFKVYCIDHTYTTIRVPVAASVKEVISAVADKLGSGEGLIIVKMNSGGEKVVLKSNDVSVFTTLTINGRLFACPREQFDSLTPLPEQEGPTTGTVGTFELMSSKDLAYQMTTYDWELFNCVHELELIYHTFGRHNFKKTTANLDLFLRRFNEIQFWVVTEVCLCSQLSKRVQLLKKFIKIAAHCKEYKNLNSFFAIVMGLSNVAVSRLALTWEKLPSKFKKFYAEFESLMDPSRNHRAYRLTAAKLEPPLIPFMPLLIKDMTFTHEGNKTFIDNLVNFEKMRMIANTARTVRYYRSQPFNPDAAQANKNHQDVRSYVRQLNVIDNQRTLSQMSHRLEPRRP
Experimental: as §1

PKA-IIβ = molecular target: T2, PKA-IIβ (Homo sapiens, UniProt P31323); assay: PKA activity assay, PKA-IIβ; format: biochemical; settings: for EC50: read-out: Kact; for A (PKA activity): PKAIIβ
T2 construct: made in house
T2 sequence (P31323 whole entry): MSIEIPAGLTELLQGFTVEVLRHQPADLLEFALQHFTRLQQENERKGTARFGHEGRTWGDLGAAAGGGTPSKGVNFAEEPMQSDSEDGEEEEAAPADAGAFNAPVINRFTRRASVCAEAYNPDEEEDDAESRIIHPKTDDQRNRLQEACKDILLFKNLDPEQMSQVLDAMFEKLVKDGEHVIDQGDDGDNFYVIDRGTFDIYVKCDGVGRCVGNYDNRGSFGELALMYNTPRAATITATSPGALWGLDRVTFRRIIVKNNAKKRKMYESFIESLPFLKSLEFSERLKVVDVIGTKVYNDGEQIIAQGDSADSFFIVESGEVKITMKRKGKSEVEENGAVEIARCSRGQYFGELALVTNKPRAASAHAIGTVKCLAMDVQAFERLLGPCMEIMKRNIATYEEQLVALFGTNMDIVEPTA
Experimental: (§2) The recombinant human PKA catalytic subunit (Cα1) and the four human PKA regulatory subunits (RIα, RIβ, RIIα, RIIβ) were expressed, purified, and characterized as described. […] PKA holoenzymes were formed by mixing the R- and C-subunit at a molar ratio of 1.2:1 and extensive dialysis against 20 mM MOPS (pH 7.0), 150 mM NaCl, 2.5 mM β-mercaptoethanol, supplemented with 1 mM ATP and 10 mM MgCl2 for PKA-I at 4°C overnight. PKA holoenzymes were used at about 20 nM for the activation assay. The apparent activation constants (Kact) were determined by fitting the concentration-dependent activity to a sigmoid dose-response model.

PKA-Iβ = molecular target: T3, PKA-Iβ (Homo sapiens, UniProt P31321); assay: PKA activity assay, PKA-Iβ; format: biochemical; settings: for EC50: read-out: Kact; for A (PKA activity): PKAIβ
T3 construct: made in house
T3 sequence (P31321 whole entry): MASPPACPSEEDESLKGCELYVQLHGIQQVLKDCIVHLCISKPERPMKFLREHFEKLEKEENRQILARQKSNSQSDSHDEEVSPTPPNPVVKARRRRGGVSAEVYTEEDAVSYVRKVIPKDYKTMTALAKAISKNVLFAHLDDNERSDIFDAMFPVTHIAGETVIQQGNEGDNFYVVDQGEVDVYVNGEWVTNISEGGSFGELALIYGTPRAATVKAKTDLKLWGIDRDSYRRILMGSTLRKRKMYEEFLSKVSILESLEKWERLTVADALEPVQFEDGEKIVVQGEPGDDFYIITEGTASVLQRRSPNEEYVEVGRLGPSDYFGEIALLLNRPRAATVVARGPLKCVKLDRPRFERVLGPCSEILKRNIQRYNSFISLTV
Experimental: as §2

Epac1 = molecular target: T4, Epac1 (Homo sapiens, UniProt O95398); set-up: method as in PMID 12888551; settings: footnote c, see also ref 13; cited from earlier work
T4 construct: made in house
T4 sequence (O95398 150-881 isoform O95398-3): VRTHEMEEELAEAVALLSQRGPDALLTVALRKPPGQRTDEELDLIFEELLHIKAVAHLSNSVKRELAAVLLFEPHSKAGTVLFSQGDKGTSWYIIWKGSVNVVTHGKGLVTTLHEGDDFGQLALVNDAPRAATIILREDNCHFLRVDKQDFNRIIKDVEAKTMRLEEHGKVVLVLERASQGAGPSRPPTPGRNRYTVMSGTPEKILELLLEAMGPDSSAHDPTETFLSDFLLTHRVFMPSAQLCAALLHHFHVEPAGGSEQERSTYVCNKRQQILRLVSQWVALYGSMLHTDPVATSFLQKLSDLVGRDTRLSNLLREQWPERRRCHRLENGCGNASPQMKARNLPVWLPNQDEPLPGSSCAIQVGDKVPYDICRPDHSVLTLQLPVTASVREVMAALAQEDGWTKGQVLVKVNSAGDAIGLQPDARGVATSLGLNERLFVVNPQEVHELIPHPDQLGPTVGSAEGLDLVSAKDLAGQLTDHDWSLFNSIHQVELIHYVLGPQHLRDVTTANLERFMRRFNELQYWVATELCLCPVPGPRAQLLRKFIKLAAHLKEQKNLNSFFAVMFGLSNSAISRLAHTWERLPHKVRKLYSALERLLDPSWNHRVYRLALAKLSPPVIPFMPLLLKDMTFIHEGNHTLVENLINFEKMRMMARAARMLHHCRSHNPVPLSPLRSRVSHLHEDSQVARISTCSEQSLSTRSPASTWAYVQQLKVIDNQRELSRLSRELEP

Structure (SMILES)	rel. P-VASP (PKA)	activation of PKA in cells (PKA)	activation of Epac2 in cells (Epac2)	rel. RapGTP (Epac2)	EC50 (PKA-IIβ; PKA-IIβ) [µM]	A (PKA activity) (PKA-IIβ; concentration 1 μM) [U/mg]	A (PKA activity) (PKA-IIβ; concentration 1.00E+01 μM) [U/mg]	A (PKA activity) (PKA-IIβ; concentration 1.00E-01 μM) [U/mg]	A (PKA activity) (PKA-IIβ; concentration 1.00E-02 μM) [U/mg]	A (PKA activity) (PKA-IIβ; concentration 1.00E-03 μM) [U/mg]	A (PKA activity) (PKA-IIβ; concentration 1.00E-04 μM) [U/mg]	A (PKA activity) (PKA-IIβ; concentration 1.00E-05 μM) [U/mg]	A (PKA activity) (PKA-IIβ; concentration 2.50E+02 μM) [U/mg]	A (PKA activity) (PKA-Iβ; concentration 1 μM) [U/mg]	A (PKA activity) (PKA-Iβ; concentration 1.00E+01 μM) [U/mg]	A (PKA activity) (PKA-Iβ; concentration 1.00E-01 μM) [U/mg]	A (PKA activity) (PKA-Iβ; concentration 1.00E-03 μM) [U/mg]	A (PKA activity) (PKA-Iβ; concentration 1.00E-05 μM) [U/mg]	A (PKA activity) (PKA-Iβ; concentration 2.50E+02 μM) [U/mg]	AC50 (Epac1) [µM]	other results
Nc1ncnc2c1nc(SCc1ccccc1)n2[C@@H]1O[C@@H]2CO[P@](O)(=S)O[C@H]2[C@H]1O [S-220, Sp-8-BnT-cAMPS]	0.1961	very low	efficiently activated	1.2025	0.21	1.92E+01	2.49E+01	1.08E+01	5.378	4.482	4.9341	2.8563	2.44E+01	2.04E+01	2.34E+01	7.7375	4.35	4.525	2.32E+01		Kact compared to cAMP (times higher / affinity reduced) (PKA-IIβ; PKA-IIβ): comparable affinities; A (PKA activity) (PKA-IIβ; concentration 2.50E-01 μM): 1.60E+01 U/mg; Kact compared to cAMP (times higher) (PKA-Iβ; PKA-Iβ): three to eight times higher; EC50 (PKA-Iβ; PKA-Iβ): 0.29 µM; A (PKA activity) (PKA-Iβ; concentration 1.00E-02 μM): 4.3125 U/mg; A (PKA activity) (PKA-Iβ; concentration 1.70E-01 μM): 1.11E+01 U/mg; A (PKA activity) (PKA-Iβ; concentration 2.50E-01 μM): 1.38E+01 U/mg; A (PKA activity) (PKA-Iβ; concentration 5.00E-01 μM): 1.59E+01 U/mg
Nc1ncnc2c1nc(Sc1ccc(Cl)cc1)n2[C@@H]1O[C@@H]2COP(=O)(O)O[C@H]2[C@H]1O [L-026, 8-pCPT-cAMP]	0.9052			0.7828																0.9	
COC1C2OP(=O)(O)OCC2OC1n1c(Sc2ccc(Cl)cc2)nc2c(N)ncnc21 [D-007, 8-pCPT-2′-O-Me-cAMP, reference compound]	0.1351	only minor effects	only minor effects	0.3431	50	6.99	1.06E+01	6.554				2.8563	1.60E+01	5.38	9.18	5.43	4.7	4.53	1.60E+01	1.8	A (PKA activity) (PKA-IIβ; concentration 5.00E+01 μM): 1.46E+01 U/mg; A (PKA activity) (PKA-IIβ; concentration 5.00E+02 μM): 1.87E+01 U/mg; EC50 (PKA-Iβ; PKA-Iβ): 18 µM; A (PKA activity) (PKA-Iβ; concentration 1.00E+03 μM): 1.84E+01 U/mg; A (PKA activity) (PKA-Iβ; concentration 2.50E+01 μM): 1.31E+01 U/mg; A (PKA activity) (PKA-Iβ; concentration 2.50E+03 μM): 1.79E+01 U/mg
Nc1ncnc2c1ncn2C1OC2COP(O)(=S)OC2C1O (centres unmarked) [S-000, Sp-cAMPS]																				90	Rel. kmax (Epac1): 1.4^c
Nc1ncnc2c1ncn2[C@@H]1O[C@@H]2COP(=O)(O)O[C@H]2[C@H]1O [cAMP, reference compound]						2.14E+01	2.50E+01	1.13E+01	4.087	4.309	4.252	2.8563		2.35E+01	2.37E+01	2.23E+01	2.9	4.525			A (PKA activity) (PKA-IIβ; concentration 1.00E+02 μM): 2.46E+01 U/mg; A (PKA activity) (PKA-IIβ; concentration 2.50E-01 μM): 1.57E+01 U/mg; A (PKA activity) (PKA-IIβ; concentration 2.50E-02 μM): 5.477 U/mg; A (PKA activity) (PKA-IIβ; concentration 5.00E-01 μM): 1.81E+01 U/mg; A (PKA activity) (PKA-IIβ; concentration 5.00E-02 μM): 9.071 U/mg; A (PKA activity) (PKA-Iβ; concentration 1.00E+02 μM): 2.44E+01 U/mg; A (PKA activity) (PKA-Iβ; concentration 1.00E-02 μM): 7.2375 U/mg; A (PKA activity) (PKA-Iβ; concentration 2.50E-02 μM): 1.08E+01 U/mg; A (PKA activity) (PKA-Iβ; concentration 5.00E-02 μM): 1.54E+01 U/mg
Cc1ccc(CSc2nc3c(N)ncnc3n2[C@@H]2O[C@@H]3CO[P@](O)(=S)O[C@H]3[C@H]2O)cc1 [S-230, Sp-8-pMeBnT-cAMPS]						2.854	3.182	1.472	1.965	1.941		2.019			2.81	5.21	4.71	4.53	3.19		A (PKA activity) (PKA-IIβ; concentration 5.00E+01 μM): 6.801 U/mg; A (PKA activity) (PKA-IIβ; concentration 5.00E+02 μM): 9.038 U/mg
